Measured values from patent US20240116985A1, “STAPLED PEPTIDES AND METHODS THEREOF” (priority 2020, published 2024).
Like-named read-outs stand apart in the source and are kept apart here.

Target: T1, full-length beta-Catenin (Uniprot ID P35222) (Homo sapiens, UniProt P35222)
T1 construct: 10 nM full-length beta-Catenin (Uniprot ID P35222)
T1 sequence (P35222 1-781): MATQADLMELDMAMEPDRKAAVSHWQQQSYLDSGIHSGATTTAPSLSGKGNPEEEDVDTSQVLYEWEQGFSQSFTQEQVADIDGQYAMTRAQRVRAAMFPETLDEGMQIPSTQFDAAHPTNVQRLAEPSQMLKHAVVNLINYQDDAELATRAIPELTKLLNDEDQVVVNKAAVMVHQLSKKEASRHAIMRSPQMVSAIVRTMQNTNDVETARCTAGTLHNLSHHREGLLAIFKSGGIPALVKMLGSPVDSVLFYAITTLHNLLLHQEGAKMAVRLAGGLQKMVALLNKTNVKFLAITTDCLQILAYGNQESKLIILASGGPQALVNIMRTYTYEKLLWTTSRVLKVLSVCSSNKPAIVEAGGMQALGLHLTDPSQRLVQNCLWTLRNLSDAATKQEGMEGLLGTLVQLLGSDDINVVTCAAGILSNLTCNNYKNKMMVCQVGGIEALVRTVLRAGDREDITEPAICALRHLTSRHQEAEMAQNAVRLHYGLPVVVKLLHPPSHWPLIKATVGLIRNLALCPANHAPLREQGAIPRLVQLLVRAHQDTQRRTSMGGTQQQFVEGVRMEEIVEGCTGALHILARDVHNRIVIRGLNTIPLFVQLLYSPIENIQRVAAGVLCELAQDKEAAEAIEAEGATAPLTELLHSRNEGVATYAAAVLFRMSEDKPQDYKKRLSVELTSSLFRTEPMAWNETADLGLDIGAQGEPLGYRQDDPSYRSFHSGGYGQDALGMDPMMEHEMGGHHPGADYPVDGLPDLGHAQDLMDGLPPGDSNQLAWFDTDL
Test: Fluorescence polarization IC50 (beta-catenin / 5FAM-TCF4 10-53 competition)
Type: binding

[1] = fluorescence polarization, read-out: beta-Catenin FP IC50

Row | SMILES | IC50 [1] [nM] | IC50 (beta-Catenin FP IC50, fluorescence polarization) [nM]
1 | CC(=O)N1CCC[C@]12CC=CCCCC1(CCCC=CCCCOC(=O)N3CC[C@@](C(=O)N[C@@H](Cc4ccccc4)C(=O)N[C@@H](Cc4csc5ccccc45)C(=O)N[C@@H](CCC(N)=O)C(N)=O)(C3)NC(=O)[C@H](Cc3ccccc3)NC(=O)[C@H](Cc3ccccc3)NC(=O)[C@H](C)NC(=O)[C@H](CCCCNC(C)C)NC(=O)[C@H]([C@@H](C)O)NC(=O)[C@H](CC(=O)O)NC1=O)NC(=O)[C@H](CC(C)(C)C)NC(=O)[C@H](CC(N)=O)NC2=O (stereo partly drawn) [I-1599, Ac-PL3-Asn-Npg-B5-Asp-Thr-iPrLys-Ala-Phe-Phe-PyrS2-Phe-BztA-Gln-NH2] | 1080 | 
2 | CC(=O)N1CCC[C@]12CC=CCCCC1(CCCC=CCCCOC(=O)N3CC[C@@](C(=O)N[C@@H](Cc4ccsc4)C(=O)N[C@@H](Cc4csc5ccccc45)C(=O)N[C@@H](CCC(N)=O)C(N)=O)(C3)NC(=O)[C@H](CC(C)C)NC(=O)[C@H](Cc3ccccc3)NC(=O)[C@H](CCCN3CCN(C)CC3)NC(=O)[C@H](C)NC(=O)[C@H](CC(=O)O)NC(=O)[C@H](CC(=O)O)NC1=O)NC(=O)[C@H](CC(C)(C)C)NC(=O)[C@H](CC(=O)O)NC2=O (stereo partly drawn) [I-1503, Ac-PL3-Asp-Npg-B5-Asp-Asp-Ala-MePpzNva-Phe-Leu-PyrS2-3Thi-BztA-Gln-NH2] | 38 | 
3 | CC(=O)N1CCC[C@]12CC=CCCCC1(CCCC=CCCCOC(=O)N3CC[C@@](C(=O)N[C@@H](Cc4cccc(C)c4)C(=O)N[C@@H](Cc4csc5ccccc45)C(=O)N[C@@H](CCC(N)=O)C(N)=O)(C3)NC(=O)[C@H](CC(N)=O)NC(=O)[C@H](Cc3ccccc3)NC(=O)[C@H](C)NC(=O)[C@H](C)NC(=O)[C@H]([C@@H](C)O)NC(=O)[C@H](CC(N)=O)NC1=O)NC(=O)[C@H](CC(C)(C)C)NC(=O)[C@H](CC(=O)O)NC2=O (stereo partly drawn) [I-1739, Ac-PL3-Asp-Npg-B5-Asn-Thr-Ala-Ala-Phe-Asn-PyrS2-3MeF-BztA-Gln-NH2] | 3650 | 
4 | CC(=O)N1CCC[C@]12CC=CCCCC1(CCCC=CCCCOC(=O)N3CC[C@@](C(=O)N[C@@H](Cc4ccsc4)C(=O)N[C@@H](Cc4csc5ccccc45)C(=O)N[C@H](C(N)=O)C(C)C)(C3)NC(=O)[C@H](CC(C)C)NC(=O)[C@H](Cc3ccccc3)NC(=O)[C@H](C)NC(=O)[C@H](C)NC(=O)[C@H](CN(CC(=O)O)CC(F)(F)F)NC(=O)[C@H](CC(=O)O)NC1=O)NC(=O)[C@H](CC(C)(C)C)NC(=O)[C@H](CC(=O)O)NC2=O (stereo partly drawn) [I-1751, Ac-PL3-Asp-Npg-B5-Asp-TfeGA-Ala-Ala-Phe-Leu-PyrS2-3Thi-BztA-Val-NH2] | 104 | 
5 | CC(=O)N1CCC[C@]12CC=CCCCC1(CCCC=CCCCOC(=O)N3CC[C@@](C(=O)N[C@@H](Cc4ccccc4)C(=O)N[C@@H](Cc4csc5ccccc45)C(=O)N[C@@H](CCO)C(N)=O)(C3)NC(=O)[C@H](CC(N)=O)NC(=O)[C@H](Cc3ccccc3)NC(=O)[C@H](C)NC(=O)[C@H](CCCCNC(C)C)NC(=O)[C@H](CCC(N)=O)NC(=O)[C@H](CC(=O)O)NC1=O)NC(=O)[C@H](CC1CCCCC1)NC(=O)[C@H](CCO)NC2=O (stereo partly drawn) [I-1932, Ac-PL3-Hse-Cha-B5-Asp-Gln-iPrLys-Ala-Phe-Asn-PyrS2-Phe-BztA-Hse-NH2] | 285 | 
6 | CC(=O)N1CCC[C@]12CC=CCCCC1(CCCC=CCCCOC(=O)N3CC[C@@](C(=O)N[C@@H](Cc4ccsc4)C(=O)N[C@@H](Cc4csc5ccccc45)C(=O)N[C@@H](CCC(N)=O)C(N)=O)(C3)NC(=O)[C@H](CC(C)C)NC(=O)[C@H](Cc3ccccc3)NC(=O)[C@H](C)NC(=O)[C@H](C)NC(=O)[C@H](CNc3ccc([N+](=O)[O-])c(C(=O)O)c3)NC(=O)[C@H](CC(=O)O)NC1=O)NC(=O)[C@H](CC(C)(C)C)NC(=O)[C@H](CC(=O)O)NC2=O (stereo partly drawn) [I-1844, Ac-PL3-Asp-Npg-B5-Asp-[3COOH4NO2Ph]Dap-Ala-Ala-Phe-Leu-PyrS2-3Thi-BztA-Gln-NH2] | 227 | 
7 | CC(=O)N1CCC[C@]12CC=CCCCC1(CCCC=CCCCOC(=O)N3CC[C@@](C(=O)N[C@@H](Cc4ccsc4)C(=O)N[C@@H](Cc4c[nH]c5ccccc45)C(=O)N[C@@H](CCC(N)=O)C(N)=O)(C3)NC(=O)[C@H](CC(N)=O)NC(=O)[C@H](Cc3ccccc3)NC(=O)[C@H](C)NC(=O)[C@H](C)NC(=O)[C@H]([C@@H](C)O)NC(=O)[C@H](CC(N)=O)NC1=O)NC(=O)[C@H](CC(C)(C)C)NC(=O)[C@H](CC(=O)O)NC2=O (stereo partly drawn) [I-1876, Ac-PL3-Asp-Npg-B5-Asn-Thr-Ala-Ala-Phe-Asn-PyrS2-3Thi-Trp-Gln-NH2] | 1340 | 
8 | CCCCCCCC(=O)N1CCC[C@]12CC=CCCCC1(CCCC=CCCCOC(=O)N3CC[C@@](C(=O)N[C@@H](Cc4ccccc4)C(=O)N[C@@H](Cc4csc5ccccc45)C(=O)N[C@@H](CO)C(N)=O)(C3)NC(=O)[C@H](CO)NC(=O)[C@H](Cc3ccccc3)NC(=O)[C@H](C)NC(=O)[C@H](C)NC(=O)[C@H](CC(=O)O)NC(=O)[C@H](CC(=O)O)NC1=O)NC(=O)[C@H](CC(C)(C)C)NC(=O)[C@H](CC(=O)O)NC2=O (stereo partly drawn) [I-1355, Oct-PL3-Asp-Npg-B5-Asp-Asp-Ala-Ala-Phe-Ser-PyrS2-Phe-BztA-Ser-NH2] | 213 | 
9 | C[C@@H]1NC(=O)[C@H](C)NC(=O)[C@H](CC(=O)O)NC(=O)[C@H](CC(=O)O)NC(=O)C2(CCCC=CCCCOC(=O)N3CC[C@@](C(=O)N[C@@H](Cc4ccsc4)C(=O)N[C@@H](Cc4csc5ccccc45)C(=O)N[C@@H](CCC(N)=O)C(N)=O)(C3)NC(=O)[C@H](CC(N)=O)NC(=O)[C@H](Cc3ccccc3)NC1=O)CCCC=CCS(=O)(=O)N1CCCC1C(=O)N[C@@H](CC(=O)O)C(=O)N[C@@H](CC(C)(C)C)C(=O)N2 (single isomer, unassigned) [I-1577, ProSAm3-Asp-Npg-B5-Asp-Asp-Ala-Ala-Phe-Asn-PyrS2-3Thi-BztA-Gln-NH2] | 45 | 
10 | CC(=O)N1CCC[C@]12CC=CCCCC1(CCCC=CCCCOC(=O)N3CC[C@@](C(=O)N[C@@H](Cc4cccc(-c5ccccc5)c4)C(=O)N[C@@H](Cc4ccccc4C(F)(F)F)C(=O)N[C@@H](CCC(N)=O)C(N)=O)(C3)NC(=O)[C@H](CC(C)C)NC(=O)[C@H](Cc3ccccc3)NC(=O)[C@H](C)NC(=O)[C@H](C)NC(=O)[C@H](Cc3cccc(C(=O)O)c3)NC(=O)[C@H](CC(=O)O)NC1=O)NC(=O)[C@H](CC(C)(C)C)NC(=O)[C@H](CC(=O)O)NC2=O (stereo partly drawn) [I-2256, Ac-PL3-Asp-Npg-B5-Asp-3COOHF-Ala-Ala-Phe-Leu-PyrS2-[Ph]3SF-2F3MeF-Gln-NH2] | 8410 | 
11 | CC(=O)N1CCC[C@]12CC=CCCCC1(CCCC=CCCCOC(=O)N3CC[C@@](C(=O)N[C@@H](Cc4ccsc4)C(=O)N[C@@H](Cc4csc5ccccc45)C(=O)N[C@@H](CCC(N)=O)C(N)=O)(C3)NC(=O)[C@H](CC(N)=O)NC(=O)[C@H](Cc3ccccc3)NC(=O)[C@H](C)NC(=O)[C@H](C)NC(=O)[C@H](CC(=O)O)NC(=O)[C@H](CC(=O)O)NC1=O)NC(=O)[C@H](CC(C)(C)C)NC(=O)[C@H](CCO)NC2=O (stereo partly drawn) [I-1228, Ac-PL3-Hse-Npg-B5-Asp-Asp-Ala-Ala-Phe-Asn-PyrS2-3Thi-BztA-Gln-NH2] | 100 | 
12 | CC(=O)N1CCC[C@]12CC=CCCCC1(CCCC=CCCOC(=O)N3CCC(C(=O)N[C@@H](Cc4ccccc4C(F)(F)F)C(=O)N[C@@H](Cc4csc5ccccc45)C(=O)N[C@@H](C)C(N)=O)(CC3)NC(=O)[C@H](CC(C)C)NC(=O)[C@H](Cc3ccccc3)NC(=O)[C@H](C)NC(=O)[C@H](CCC(N)=O)NC(=O)[C@H](Cc3cccc(C(=O)O)c3)NC(=O)[C@H](CC(=O)O)NC1=O)NC(=O)[C@H](CC(C)(C)C)NC(=O)[C@H](CC(=O)O)NC2=O (stereo partly drawn) [I-2584, Ac-PL3-Asp-Npg-B5-Asp-3COOHF-Gln-Ala-Phe-Leu-SPip1-2F3MeF-BztA-Ala-NH2] | 1840 | 
13 | CC(=O)N1CCC[C@]12CC=CCCCC1(CCCC=CCCCOC(=O)N3CC[C@@](C(=O)N[C@@H](Cc4ccccc4Cl)C(=O)N[C@@H](Cc4csc5ccccc45)C(=O)N[C@@H](CC(C)C)C(N)=O)(C3)NC(=O)[C@H](CC(C)C)NC(=O)[C@H](Cc3ccccc3)NC(=O)[C@H](C)NC(=O)[C@H](C)NC(=O)[C@H](CC(=O)O)NC(=O)[C@H](CC(=O)O)NC1=O)NC(=O)[C@H]([C@@H](C)O)NC(=O)[C@H](CC(=O)O)NC2=O (stereo partly drawn) [I-1424, Ac-PL3-Asp-Thr-B5-Asp-Asp-Ala-Ala-Phe-Leu-PyrS2-2C1F-BztA-Leu-NH2] |  | 235
14 | CC(=O)N1CCC[C@]12CC=CCCCC1(CCCC=CCCCOC(=O)N3CC[C@@](C(=O)N[C@@H](Cc4ccsc4)C(=O)N[C@@H](Cc4csc5ccccc45)C(=O)N[C@@H](CCC(N)=O)C(N)=O)(C3)NC(=O)[C@H](CCC(C)C)NC(=O)[C@H](Cc3ccccc3)NC(=O)[C@H](C)NC(=O)[C@H](C)NC(=O)[C@H]([C@@H](C)O)NC(=O)[C@H](CC(N)=O)NC1=O)NC(=O)[C@H](CC(C)(C)C)NC(=O)[C@H](CC(=O)O)NC2=O (stereo partly drawn) [I-1620, Ac-PL3-Asp-Npg-B5-Asn-Thr-Ala-Ala-Phe-hLeu-PyrS2-3Thi-BztA-Gln-NH2] | 2060 | 
